From US12109315B2, “Method for treating Blastocystis infection” (Imam Abdulrahman Bin Faisal University, priority 2022, dated 2024)
Read-outs that look alike come from different tables or passages of the source. Each block holds one compound with its values, some of them ahead of it.

Columns and labels:
Blastocystis cysts = assay: organism not typed; type: cell-based; details: read-out: Reduction in the percentage of viability of Blastocystis cysts
Source text: Suspensions of cultured Blastocystis from symptomatic patients were used for evaluating biological activities of the formulated nanocomposites. Blastocystis were obtained from the El-Badry Lab where ethically approved by the Deanship of Scientific Research and Postgraduate Studies of Imam Abdulrahman Bin Faisal University under the Institutional Review Board (IRB) number (IRB #2021-01-009).
Blastocystis were sub-cultured using fresh Jones' medium enriched with 10% horse serum according to Jones to get rid of stool debris [Jones, W. Ann Trop Med Parasitol., 1946, 40, 130-140; & Zman, V., and Khan, K. Southt Asian J Trop Med Public Health, 1994, 25, 792-793, each of which is incorporated herein by reference in its entirety]. Cultures with vacuolar forms of Blastocystis greater than 10^6 were used for evaluating biological activities of the formulated nanocomposites.
Suspension of cultured Blastocytis cysts, in logarithmic growth phase of 10^6/ml, were inoculated in sets of culture tubes with Jones' culture media. Haemocytometer counting chamber was used to count the number of Blastocystis cysts. The experiments contained 3 groups as follows:
Group 1 (G1): parasite (negative, not treated) control group, containing only cultured cysts of Blastocystis.
Group 2 (G2): drug (positive) control, containing cultured parasites exposed to 500 μg/ml metronidazole as reference anti-Blastocystis therapy.
Group 3 (G3): nanocomposites tested group, containing cultured parasites exposed to the three nanocomposites. G3 was further divided into subgroups to test three nanocomposites (G3A, G3B and […]) at different concentrations (G3i-iv). Parasites were exposed to increasing concentrations of the three nanocomposites of 100 μg/ml (G3i) 200 μg/ml (G3ii), 500 μg/ml (G3iii) and 800 μg/ml (G3iv) (W/V). All tubes were incubated at 37° C. in humidified CO2 for 48 hours.
All tested nanocomposites for each concentration were prepared by diluting stock solution in appropriate amount of PBS. The volume of each of the experiment tubes was brought to 1 ml with Blastocystis 10^6/ml concentration. All experiments were performed in triplicate [El-Sayed, S. H., et. al., Res J Parasitol., 2017, 12,2, 33-44; Méabed, E. M. H., Phytomedicine, 2018, 1, 43, 158-163; & Mokhtar, A. B., et. al., Int J Environ Res Public Health, 2019, 16, 1555, each of which is incorporated herein by reference in its entirety].
The number of Blastocystis cysts from all cultured tubes included in the experiment were counted under the microscope in haemocytometer counting chamber, and cultured Blastocystis cysts were tested for their viability using Trypan blue solution (0.4%). […] The dead Blastocystis cysts were further confirmed by microscopic detection of cell wall disruption and destruction of internal structures. All cultured tubes were examined for percentage of reduction in growth of Blastocystis cysts each hour for 5 hours then after 24 hours. The minimal lethal concentration (MLC) was determined to be the concentration at which no Blastocystis cysts were observed.

[1] = Drug release study (dialysis membrane, PBS, UV-visible spectroscopy); type: physicochemical; details: within 12 h, absence of nanocarrier, PBS pH 5.6, 37° C.
Procedure: Prior to the study, the dialysis membrane (12 KDa, Sigma Aldrich) was activated and then 15 mg of nanoformulation was dispersed in 25 ml of PBS solution (pH 5.6 and 7.4). The release of antioxidants are studied at 37° C. At regular time interval, 5 ml of solution was withdrawn, and release of antioxidants were measured using UV-visible spectroscopy. The withdrawn solution (5 ml) was replaced with equal volume of fresh PBS solution.
Various concentration of aliquots 5, 10, 15, 20, 25 and 30 μg/ml was prepared with makeup volume to 10 ml using release medium PBS solution (pH=5.6 or 7.4) and calibration curve established against blank at maximum absorption wavelength λmax of 428 nm and 307 nm, respectively. […] The release study was repeated in triplicates.

Compound: Cc1ncc([N+](=O)[O-])n1CCO [Metronidazole, metronidazole]
inhibition at 500 µg/mL (Blastocystis cysts; 1 h): 81.7%
inhibition at 500 µg/mL (Blastocystis cysts; 2 h): 87.7%
inhibition at 500 µg/mL (Blastocystis cysts; 3 h): 91.3%
inhibition at 500 µg/mL (Blastocystis cysts; 4 h): 96.3%
inhibition at 500 µg/mL (Blastocystis cysts; 5 h): 98.7%
inhibition at 500 µg/mL (Blastocystis cysts; 24 h): 99.3%

maximum release of resveratrol (burst release) [1]: 43%
Compound: Oc1ccc(/C=C/c2cc(O)cc(O)c2)cc1 [resveratrol, Resveratrol]
